Patent US4539037A, “Urease inhibited urea based fertilizer compositions containing N-aryl-N-aliphatic phosphorotriamide compounds” (Allied Corporation, priority 1983, dated 1985)

Key:
soil urease [1] = assay: Soil urease inhibition test (urea remaining after incubation in Cazenovia sandy loam, 25° C., 3 days); format: biochemical; settings: for % Inhibition 20 μmg: 20 micrograms test compound per 20 g soil
Description: The inhibition tests were run in a New York soil (Cazenovia sandy loam, pH 7.2). […] The bottle was capped with perforated aluminum foil and incubated at 25° C. for 3 days prior to extraction with 100 mL 2M KCl containing 0.5 mg phenylmercuric acetate. The extracts were then analyzed for remaining urea using an auto analyzer. Percent inhibition was calculated as
% Inhibition=[-1(A-B/A-C)]×100
where A is urea recovered from unincubated sample (urea added to soil and immediately extracted); B is urea recovered from inhibited sample; and C is urea recovered from the control (uninhibited sample).

soil urease [2] = assay: Urea hydrolyzed vs. time in soil at elevated temperature (35° C.); format: biochemical; settings: soil at 35° C., 10 micrograms of urease inhibitor per gram of soil; for urease inhibiting effect at 35° C. (FIGURE, in words): sampled every two days, period of 12 days
Description: FIG. 1 is a graph of urea hydrolyzed vs. time at 35° C. using 10 micrograms of urease inhibitor per gram of soil.
Several representative N-alkyl-N-aryl phosphoric triamide compounds useful in the practice of this invention were tested to determine their relative effectiveness or urease inhibitors. The inhibition tests were run in a New York soil (Cazenovia sandy loam, pH 7.2). Evaluations (run in triplicate) consisted of applying 800 and 20 micrograms of test compound in 5 mL water and 42.8 mg urea in 1 mL water to 20 g air-dry soil in a glass bottle. The bottle was capped with perforated aluminum foil and incubated at 25° C. for 3 days prior to extraction with 100 mL 2M KCl containing 0.5 mg phenylmercuric acetate. The extracts were then analyzed for remaining urea using an auto analyzer. Percent inhibition was calculated as
Employing the procedure of EXAMPLES VII to IX a series of test were conducted to show improved efficiency of N-aliphatic-N-arylphosphoric triamides at elevated temperature as compared to the efficiency of phenylphosphorodiamidate, a prior art urease inhibitor. This test was conducted similarly to the test previously described, but soil samples were taken every two days and analyzed for urea content.

soil urease [3] = settings: stated for a known compound; cited from earlier work
[4] = Table II, procedure of Examples VII to IX
[5] = Table II, procedure of Examples VII to IX, 800 micrograms test compound per 20 g soil

Compound	% Inhibition 20 μmg (soil urease [1]; [4]) [%]	% Inhibition 800 μmg (soil urease [1]; [5]) [%]	urease inhibiting effect at 35° C. (FIGURE, in words) (soil urease [2])	further results
NP(N)(=O)Nc1ccccc1 [Comp II]	19	74	–	–
NP(N)(=O)Nc1ccc([N+](=O)[O-])cc1 [Comp I]	30	81	–	–
COc1ccc(N(C)P(N)(N)=O)cc1 [VIII]	–	–	–	% Inhibition 800 μmg (soil urease [1]; Table I, 800 micrograms test compound + 42.8 mg urea per 20 g air-dry soil (pH 7.2), triplicate): 47%
NP(N)(=O)Oc1ccccc1 [phenyl phosphorodiamidate]	–	–	much less effective	time to essentially complete urea hydrolysis (soil urease [2]): 6 days; urease inhibiting effect at 25° C. (in words) (soil urease [3]): excellent urease inhibiting effect
N-Methyl-N-(4-nitrophenyl) Phosphoric Triamide [IX]	–	–	excellent inhibitor	–
